The nature of data set [1]: pKa value by photometric titration. Format: physicochemical.
The target in another data set is T1, Nitric oxide synthase 3 (Homo sapiens, UniProt P29474).
T1 sequence (P29474 whole entry): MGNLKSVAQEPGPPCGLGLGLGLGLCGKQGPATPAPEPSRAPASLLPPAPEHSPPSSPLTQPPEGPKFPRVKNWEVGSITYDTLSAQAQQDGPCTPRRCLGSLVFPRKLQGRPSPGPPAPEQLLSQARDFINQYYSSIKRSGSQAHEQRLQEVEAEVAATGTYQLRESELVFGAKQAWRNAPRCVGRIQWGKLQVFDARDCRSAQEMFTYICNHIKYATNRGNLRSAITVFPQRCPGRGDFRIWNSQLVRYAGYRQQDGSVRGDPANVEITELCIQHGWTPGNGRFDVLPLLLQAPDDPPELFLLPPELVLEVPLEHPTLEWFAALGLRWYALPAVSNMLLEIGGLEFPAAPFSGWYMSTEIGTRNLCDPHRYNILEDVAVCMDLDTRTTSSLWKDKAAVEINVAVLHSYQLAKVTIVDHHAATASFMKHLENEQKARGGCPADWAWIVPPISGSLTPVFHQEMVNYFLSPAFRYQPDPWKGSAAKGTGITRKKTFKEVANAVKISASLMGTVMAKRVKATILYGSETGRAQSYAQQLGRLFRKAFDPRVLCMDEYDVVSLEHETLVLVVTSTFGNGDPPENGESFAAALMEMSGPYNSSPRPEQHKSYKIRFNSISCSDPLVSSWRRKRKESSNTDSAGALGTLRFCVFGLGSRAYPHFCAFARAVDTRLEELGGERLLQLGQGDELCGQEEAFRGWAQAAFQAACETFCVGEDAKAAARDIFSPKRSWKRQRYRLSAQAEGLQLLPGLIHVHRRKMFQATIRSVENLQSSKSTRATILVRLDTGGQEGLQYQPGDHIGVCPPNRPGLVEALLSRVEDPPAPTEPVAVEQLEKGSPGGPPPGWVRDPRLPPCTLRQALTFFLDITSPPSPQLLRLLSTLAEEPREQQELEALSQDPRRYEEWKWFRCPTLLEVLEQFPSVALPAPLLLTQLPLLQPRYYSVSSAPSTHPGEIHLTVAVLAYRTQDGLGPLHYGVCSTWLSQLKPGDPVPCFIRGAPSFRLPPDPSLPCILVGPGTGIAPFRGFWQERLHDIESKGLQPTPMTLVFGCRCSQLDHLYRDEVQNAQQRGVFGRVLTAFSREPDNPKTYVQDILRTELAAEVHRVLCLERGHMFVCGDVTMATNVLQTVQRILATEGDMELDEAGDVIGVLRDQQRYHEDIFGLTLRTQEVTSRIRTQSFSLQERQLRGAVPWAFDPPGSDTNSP
As to the kind of experiment: Inhibition of human endothelial nitric oxide synthase.

The next data set concerns the target Nitric oxide synthase 1 (Homo sapiens, UniProt P29475). Nature of the data set: Inhibition of human neuronal nitric oxide synthase.
In data set [2] the target is Nitric oxide synthase, inducible (Homo sapiens, UniProt P35228). Nature of the data set: Inhibition of human inducible nitric oxide synthase.
Nitric oxide synthase, inducible, sequence (P35228 whole entry): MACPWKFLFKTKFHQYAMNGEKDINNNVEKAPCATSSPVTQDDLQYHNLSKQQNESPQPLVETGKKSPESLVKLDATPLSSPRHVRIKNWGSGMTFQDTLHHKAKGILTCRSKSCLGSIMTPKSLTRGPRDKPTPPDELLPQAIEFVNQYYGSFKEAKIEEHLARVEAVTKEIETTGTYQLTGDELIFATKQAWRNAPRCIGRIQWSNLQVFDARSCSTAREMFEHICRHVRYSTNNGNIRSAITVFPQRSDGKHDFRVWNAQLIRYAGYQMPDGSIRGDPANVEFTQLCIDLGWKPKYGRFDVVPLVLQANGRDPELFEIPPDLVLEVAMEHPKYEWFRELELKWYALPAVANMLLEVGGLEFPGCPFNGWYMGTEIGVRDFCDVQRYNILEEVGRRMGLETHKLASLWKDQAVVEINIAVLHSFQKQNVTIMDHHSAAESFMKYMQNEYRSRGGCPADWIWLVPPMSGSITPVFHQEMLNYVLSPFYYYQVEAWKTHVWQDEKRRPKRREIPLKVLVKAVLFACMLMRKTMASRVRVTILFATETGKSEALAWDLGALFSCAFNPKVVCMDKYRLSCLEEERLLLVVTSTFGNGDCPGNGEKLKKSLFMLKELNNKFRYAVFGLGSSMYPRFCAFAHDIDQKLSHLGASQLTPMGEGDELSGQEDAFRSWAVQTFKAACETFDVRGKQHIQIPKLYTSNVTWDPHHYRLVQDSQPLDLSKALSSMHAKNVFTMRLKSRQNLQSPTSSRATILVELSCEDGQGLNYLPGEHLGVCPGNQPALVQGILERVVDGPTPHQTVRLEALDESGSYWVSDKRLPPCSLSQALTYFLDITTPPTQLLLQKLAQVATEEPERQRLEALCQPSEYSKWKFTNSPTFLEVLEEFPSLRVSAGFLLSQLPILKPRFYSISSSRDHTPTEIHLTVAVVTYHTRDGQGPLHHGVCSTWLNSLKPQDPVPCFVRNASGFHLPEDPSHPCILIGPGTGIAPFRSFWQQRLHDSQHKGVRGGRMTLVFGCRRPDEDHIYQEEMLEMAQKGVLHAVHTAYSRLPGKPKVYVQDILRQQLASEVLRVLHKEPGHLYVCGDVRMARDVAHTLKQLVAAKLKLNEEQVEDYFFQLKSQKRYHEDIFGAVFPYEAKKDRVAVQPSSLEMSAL

Nitric oxide synthase 1, sequence (P29475 whole entry): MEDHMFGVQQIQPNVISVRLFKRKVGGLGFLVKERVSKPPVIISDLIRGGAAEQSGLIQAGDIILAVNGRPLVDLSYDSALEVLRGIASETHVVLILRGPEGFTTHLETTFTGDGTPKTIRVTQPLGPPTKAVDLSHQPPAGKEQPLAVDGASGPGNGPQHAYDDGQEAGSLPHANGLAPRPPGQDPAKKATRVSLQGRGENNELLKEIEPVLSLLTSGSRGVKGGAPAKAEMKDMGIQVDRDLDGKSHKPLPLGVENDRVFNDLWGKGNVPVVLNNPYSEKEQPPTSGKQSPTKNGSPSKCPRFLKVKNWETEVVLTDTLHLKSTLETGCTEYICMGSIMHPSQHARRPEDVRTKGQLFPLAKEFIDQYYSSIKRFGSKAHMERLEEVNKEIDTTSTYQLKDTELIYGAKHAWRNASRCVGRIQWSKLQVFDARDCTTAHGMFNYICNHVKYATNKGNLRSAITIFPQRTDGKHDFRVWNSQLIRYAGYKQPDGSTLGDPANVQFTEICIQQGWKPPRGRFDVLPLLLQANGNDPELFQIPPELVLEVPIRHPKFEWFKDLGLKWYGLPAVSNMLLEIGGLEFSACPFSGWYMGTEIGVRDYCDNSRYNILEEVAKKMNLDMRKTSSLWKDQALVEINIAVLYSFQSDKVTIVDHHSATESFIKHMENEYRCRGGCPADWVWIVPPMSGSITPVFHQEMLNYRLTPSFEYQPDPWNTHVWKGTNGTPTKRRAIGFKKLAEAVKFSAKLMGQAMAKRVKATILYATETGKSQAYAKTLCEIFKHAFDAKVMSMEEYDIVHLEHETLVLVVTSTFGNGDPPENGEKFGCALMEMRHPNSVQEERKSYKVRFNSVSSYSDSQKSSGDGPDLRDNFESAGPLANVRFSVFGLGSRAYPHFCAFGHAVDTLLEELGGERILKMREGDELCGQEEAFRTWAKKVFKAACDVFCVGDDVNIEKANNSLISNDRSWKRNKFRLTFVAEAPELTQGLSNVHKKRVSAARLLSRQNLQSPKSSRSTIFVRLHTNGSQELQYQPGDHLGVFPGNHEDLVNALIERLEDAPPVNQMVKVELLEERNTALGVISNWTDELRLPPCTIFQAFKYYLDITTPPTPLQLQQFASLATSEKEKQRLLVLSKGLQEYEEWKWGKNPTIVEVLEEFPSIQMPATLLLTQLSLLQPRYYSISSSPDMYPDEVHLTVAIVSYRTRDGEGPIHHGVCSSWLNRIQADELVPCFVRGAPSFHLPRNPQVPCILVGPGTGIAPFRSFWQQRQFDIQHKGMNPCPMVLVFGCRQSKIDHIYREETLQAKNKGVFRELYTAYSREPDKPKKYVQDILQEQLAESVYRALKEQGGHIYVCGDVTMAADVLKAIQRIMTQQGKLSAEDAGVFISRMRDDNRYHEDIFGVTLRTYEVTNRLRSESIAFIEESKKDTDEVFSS

In data set [1], `NC1=Nc2ccccc2[C@H]2CCC[C@@H]12` yielded a pKa of 9.7.

For `NC1=Nc2c(F)cccc2[C@H]2CCC[C@@]12F`, the pKa in data set [1] turned out to be 6.6. The IC50 against Nitric oxide synthase 3 was 22 µM; against Nitric oxide synthase 1, 0.59 µM; in data set [2], 25 µM.

`NC1=Nc2cc(CCCNCc3cccc(Cl)c3)ccc2[C@H]2CCC[C@@]12F` yielded a pKa in data set [1] of 8. In addition, the IC50 on Nitric oxide synthase 3 stood at 38 µM; against Nitric oxide synthase 1 it was 0.31 µM; in data set [2] it was 2.2 µM.

`NC1=Nc2c(F)cccc2[C@H]2CCC[C@@H]12` had a pKa in data set [1] of 8.5.

Regarding `CNCc1ccc2c(c1)N=C(N)[C@]1(F)CCC[C@H]21`, the IC50 was determined as 66 µM on Nitric oxide synthase 3, 0.66 µM on Nitric oxide synthase 1 and 1.4 µM in data set [2].

On to `NC1=Nc2ccccc2[C@H]2CCC[C@@]12F`, for which the pKa in data set [1] is 7.9. Further, the figures for the IC50 (on Nitric oxide synthase 3; on Nitric oxide synthase 1; in data set [2]) were 2.7 µM, 0.1 µM and 2.1 µM, respectively.

Molecule `NC1=Nc2c(ccc(F)c2F)[C@H]2CCC[C@@H]12` displayed a pKa in data set [1] of 8.

Molecule `NC1=Nc2cc(CCCNCc3cccc(Cl)c3)ccc2[C@H]2CCC[C@@H]12` came in with a pKa in data set [1] of 9.9.

The molecule `NC1=Nc2ccc(Cl)cc2[C@H]2CCC[C@@H]12` yielded a pKa in data set [1] of 9.4.

In data set [1], `CNCCc1ccc2c(c1)N=C(N)[C@]1(F)CCC[C@H]21` yielded a pKa of 7.9. Moreover, the IC50 on Nitric oxide synthase 3 was 79 µM; against Nitric oxide synthase 1 it was 0.39 µM; in data set [2] it was 1.9 µM.

`NC1=Nc2c(F)cc(Cl)cc2[C@H]2CCC[C@@H]12` yielded a pKa in data set [1] of 8.2. In addition, the IC50 against Nitric oxide synthase 3 is 14 µM; against Nitric oxide synthase 1, 0.29 µM; in data set [2], 8.1 µM.

Molecule `NC1=Nc2ccc(Cl)cc2[C@H]2CCC[C@@]12F` returned a pKa in data set [1] of 7.6. Besides, the IC50 at Nitric oxide synthase 3 was 14 µM; on Nitric oxide synthase 1, 0.29 µM; in data set [2], 8.1 µM.

What is called pKa is the negative logarithm of the acid dissociation constant. The term IC50 denotes the midpoint of a concentration-inhibition curve.

(Values after ChEMBL document CHEMBL1137842, “Fluorinated dihydroquinolines as potent n-NOS inhibitors” (Bioorg Med Chem Lett, 2004).)
